From US20200345725A1, “Methods and Compositions for Treating Cancer” (Omeros Corporation, priority 2019, published 2020)

What was measured:
Assay type in all cases: cell-based
[1] = target: T1, GPR174 (Homo sapiens, UniProt Q9BXC1); assay: GPR174 signaling assays with adenosine receptor inhibitors (data not shown); design: host or cells: HEK293 or CHO cell lines (ATCC)
Excerpt: It should be noted that the A2aR inhibitors tested belong to four distinct chemical classes and that none of them affects GPR174 signaling when tested in signaling assays (data not shown).
Target sequence in this assay (Q9BXC1 whole entry, species assumed): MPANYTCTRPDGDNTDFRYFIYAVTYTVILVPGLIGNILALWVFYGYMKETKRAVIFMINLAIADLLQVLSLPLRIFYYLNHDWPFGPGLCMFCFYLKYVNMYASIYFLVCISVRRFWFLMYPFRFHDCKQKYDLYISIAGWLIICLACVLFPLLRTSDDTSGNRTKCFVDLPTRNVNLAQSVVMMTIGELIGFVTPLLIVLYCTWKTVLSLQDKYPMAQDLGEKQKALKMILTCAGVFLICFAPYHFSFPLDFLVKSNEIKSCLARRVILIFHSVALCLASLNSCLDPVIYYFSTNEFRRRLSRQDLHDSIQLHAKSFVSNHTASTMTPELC

[2] = system: purified human T cells; assay: Suppression of cytokine production from purified human T cells by PS liposomes and NECA (MesoScale Discovery); details: purified human CD3+ T cells, 24 hours, PS liposomes 1 μM, NECA
Experimental: Purified human T cells (untouched total T cells, Astarte Biologies, Inc., CD3+ T cells in FIGS. 72A and 72B and CD8+ T cells in FIG. 72C) were stimulated in quadruplicate at 100,000 cells per well in 96-well flat bottom plates and X-vivo 15 media with the following reagents:
ImmunoCult™ Human CD3/CD28 T Cell Activator (StemCell) (1:50 dilution)
PS liposomes (1 μM) or media control
Adenosine receptor agonist (NECA, 0.1 μM or 0.05 μM) or media control
A combination of both reagents.
After 24 hours of culture (44 hours for the results shown in FIG. 72C), culture media was analyzed for cytokines (MesoScale Discovery).

[3] = system: mouse splenocytes; assay: IL-2 levels in supernatants of cultured mouse splenocytes (WT or GPR174-KO) stimulated with anti-CD3 and anti-CD28, MSD platform; details: 2 days
Experimental: To make single cell suspensions from mouse splenocytes, spleens were cut into 1-2 mm^3 pieces with a razor blade and incubated at 37° C. with 10 μg/mL DNase and 1 mg/mL Collagenase D with agitation for 90 min. Spleen fragments and cells were then pressed through a nylon screen, and the resulting cell suspension was washed. In 96-well flat-bottom plates, splenocytes were cultured in quadruplicate with the following conditions for 2 days, after which supernatants were tested for cytokine levels with the MSD platform.
Anti-CD3 (clone 2C11; 0.1 μg/mL)
GPR174 inhibitor (compound 10, 1 μM or 0.3 μM, or DMSO vehicle control)
GPR174 inhibitor (compound 6, 0.3 μM, or DMSO vehicle control)
Adenosine receptor agonist (NECA, 0.1 μM)

[4] = system: human PBMC; assay: IL-2 in supernatants of human PBMC stimulated with anti-CD3 and anti-CD28, ELISA; details: human PBMC donor 8, 24 hours post-stimulation; compound 10 1 μM, ZM-241385 0.1 μM, APCP 10 μM; FIG. 71
Experimental: Human PBMCs, obtained from a human volunteer donor (donor 8), were dispensed in X-vivo15 media (Lonza) supplemented with Glutamax, penicillin and streptomycin, at density of 1×10^6 cells/well in a 96-well flat-bottom plate and were cultured in quadruplicate for 3 hours in the presence of:
GPR174 inhibitory compound 10 (1 μM);
CD73 inhibitory compound, adenosine 5′-(a,p-methylene)diphosphate sodium salt (APCP, Tocris, 10 μM);
Combinations of the above agents;
After which 1 μg/mL anti-CD3 antibody (UCHT1) and 0.1 μg/mL anti-CD28 antibody (CD28.2) were added to activate T cells. Supernatants from these cells were collected at 24 hours post-stimulation and the levels of IL-2 were determined by ELISA.

[5] = target: T2, ADBR2 (Homo sapiens, UniProt P07550); assay: CRE-Luc reporter assay with control receptor ADBR2
T2 construct: host or cells: HEK293 or CHO cell lines (ATCC)
Experimental: The DNA/lipofectamine 2000 mix (3000 μL) was incubated at room temperature for 30 minutes and then added into a 10 cm culture dish (Corning, NY) containing 70-90% confluent cultured cells, (HEK293 or CHO cell lines (ATCC, VA)), in 15 mL of media. […] The cells were further incubated at 37° C. for various times. The media were removed and the cells lysed.
Compounds were tested in the reporter system with increasing concentrations of GPR174-interacting compounds.
The DNA/lipofectamine 2000 mix (3000 μL) was incubated at room temperature for 30 minutes and then added into a 10 cm culture dish (Corning, NY) containing 70-90% confluent cultured cells, typically HEK293 or CHO cell lines (ATCC, VA), in 15 mL of media. […] Media (26 mL) were added to the detached cells and 120 μL of transfected cells were transferred to each well on a 96-well plate. Increasing concentration of each compound in DMSO (1.2 μl) was added to the cells after plating into the 96-well plate. The cells were further incubated at 37° C. for various times. The media were removed, and the cells lysed.
ADBR2 is a GPCR, like GPR174, that activates the Gs signaling pathway.

[6] = target: T2, ADBR2; assay: GloSensor cAMP assay with ADBR2
[7] = target: T1, GPR174; assay: Cellular redistribution assay (CRA) for GPR174
Excerpt: One method for identifying compounds capable of modulating a receptor is using a cellular redistribution assay (“CRA”). Exemplary CRA methods are found in U.S. Pat. No. 7,309,576 issued to O'Dowd et al. and in O'Dowd et al., J. Biomol. Screen. 12:175-85,2007. […] Incorporation of the NLS alters the cellular localization of the GPCR, such that the majority of the NLS-modified receptor is present in the cell interior. An NLS-modified GPCR, when interacting with a functionally active compound, is mostly localized on the cell surface. Thus, it becomes possible to identify receptor modulators without knowledge of the endogenous ligand or a surrogate ligand.
The inventors have identified a number of compounds that inhibit GPR174 using a CRA assay similar to that described in U.S. Pat. No. 7,309,576 and in O'Dowd et al., J. Biomol. Screen. 12:175-85, 2007. These compounds are described in detail below.
(§1) The inventors used a CRA similar to that described in U.S. Pat. No. 7,309,576 and O'Dowd et al., J. Biomol. Screen. 12:175-85, 2007 to identify compounds that are capable of interacting with GPR174 using a library of approximately 370,000 chemical entities. Briefly described, the CRA assay described in U.S. Pat. No. 7,309,576 involves artificially inserting a NLS into the dopamine D1 receptor (DRD1), which allows the receptor to traffic from the cell membrane to the cell interior, and that the binding of antagonists to the receptor retained the receptor at the cell surface, while removal of the ligand allowed the receptor to continue to internalize from the cell surface. Both antagonists and agonists that selectively bound the receptor retained the receptor on the plasma membrane. GPR174 constructs were generated for use in a CRA-based compound screening assay. From this screen, the inventors initially identified compounds of formula I-VI, as described herein and included in Table 1.
Target sequence in this assay (Q9BXC1 1-292 limits assumed): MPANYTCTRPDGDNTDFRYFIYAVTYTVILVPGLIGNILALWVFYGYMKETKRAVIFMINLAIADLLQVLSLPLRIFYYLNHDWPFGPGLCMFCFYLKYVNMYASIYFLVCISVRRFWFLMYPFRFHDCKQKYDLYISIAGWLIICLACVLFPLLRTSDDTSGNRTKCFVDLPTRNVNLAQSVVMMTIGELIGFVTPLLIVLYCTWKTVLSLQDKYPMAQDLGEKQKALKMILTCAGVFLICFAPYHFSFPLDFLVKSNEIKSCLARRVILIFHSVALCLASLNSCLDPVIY

[8] = target: T1, GPR174; assay: GloSensor cAMP assay with GPR174, with or without agonist LysoPS; design: host or cells: HEK293 or CHO cell lines (ATCC)
Experimental: In order to confirm that GPR174 interacting compound 4 is an antagonist of GPR174-mediated Gs signaling, a GloSensor assay was carried out with increasing concentrations of compound 4 in the presence or absence of a fixed concentration (1 μM) of the GPR174 agonist LysoPS as follows.
The DNA/lipofectamine 2000 mix (3000 μL) was incubated at room temperature for 30 minutes and then added into a 10 cm culture dish (Corning, NY) containing 70-90% confluent cultured cells, typically HEK293 or CHO cell lines (ATCC, VA), in 15 mL of media. […] Media (26 mL) was added to the detached cells and 100 μL of transfected cells were transferred to each well on a 96-well plate. The cells were further incubated at 37° C. overnight. The following day, the media were removed and 100 μl of equilibration media (Promega) was added to each well to the manufacturer's directions. The cells were then incubated at room temperature for 2 hours and the cell plates were pre-read with a SpectraMax L (Molecular Devices, CA). After the pre-read, increasing concentrations of each compound in DMSO (1.0 μl) was added to the cells. The cell plates containing the compound were read immediately after the compound was added and at various times up to 30 minutes after the addition of the compound with a SpectraMax L (Molecular Devices, CA). Data were analyzed with either Excel (Microsoft, WA) or Prism 4.03 (GraphPad, CA).
Target sequence in this assay (Q9BXC1 whole entry, species assumed): as the sequence (Q9BXC1 whole entry, species assumed) above

[9] = target: T1, GPR174; assay: CRE-Luc reporter Gs signaling assay with GPR174; design: host or cells: HEK293 or CHO cell lines (ATCC); details: for Human GPR174 CRE Activity: nature of the compound (IA, antagonist, NM): pCRE-Luc reporter
Target sequence in this assay (Q9BXC1 whole entry): as the sequence (Q9BXC1 whole entry, species assumed) above

[10] = system: CHRM1; assay: CRA against CHRM1
Excerpt: as §1
The inventors also sought to validate that the compounds identified using the CRA are modulatory compounds. To this end, the above-described CRA was used to screen a library for compounds that interact with three control non-orphan receptors, and the results of this screen were compared to the results of screening the same library for compound that were identified using a Fluorometric Imaging Plate Reader (FLIPR) assay, a conventional technique commonly used to identify compounds interacting with non-orphan GPCRs signaling through Ca^++. Three non-orphan GPCRs—Muscarinic acetylcholine receptor M1 (CHRM1), Adrenergic receptor alpha 1a (ADRA1a), and Neuropeptide S receptor (NPSR)—were screened against a 10,000-compound GPCR-focused library. Thirty interacting compound “hits” were identified using the CRA, and eighty-one hits were identified using the FLIPR for the CHRM1 receptor; 9 CRA hits and 29 FLIPR hits for the NPS receptor were identified; and 110 CRA hits and 110 FLIPR hits for ADRA1a.
In addition, the CRA can also provide the relative potencies of compounds against the target receptor.

[11] = target: GPR174-v38 (Homo sapiens, UniProt Q9BXC1); assay: GloSensor Gs signaling by phospholipids, HEK293 cells expressing mutant GPR174-v38; details: 10 nM to 10,000 nM
Experimental: (§2) Unilamellar liposomes of phosphatidylserine (PS) and other phospholipids were prepared by hydration in PBS and extrusion at 50-54° C. through a 0.1 micron filter using a mini-extruder (Avanti). Lysophosphatidylserine (Lyso-PS) is soluble.
(§3) HEK293 cells were grown in 6-well plates and transfected using Lipofectamine 2000 (Thermo Fisher Scientific) with 300 ng/well of cAMP biosensor expressing plasmid pGlo22F (Promega) and 2 ng of a plasmid expressing wild-type GPR174 or 2 ng of a plasmid expressing a GPR174 mutant with lowered basal activity, referred to as “GPR174-v38.”
(§4) 5-6 hours after transfection, the cells were trypsinized and plated at a density of 5000 cells/well into 96-well plates and incubated overnight. The next day, the culture medium was replaced with 100 μL/well of serum free medium X-vivo15 (Lonza) with 2% GloSensor Assay reagent (Promega). The plates were incubated for 1 hour at room temperature and measured in a luminometer to obtain the pre-compound values. […] The plates were measured in a luminometer to obtain the post-compound addition measurement. The ratio of post-compound addition to pre-compound addition measurements (i.e., the extent of Glosensor signal induction by an agonist) was determined.

[12] = target: T3, wild-type GPR174 (Homo sapiens, UniProt Q9BXC1); assay: GloSensor Gs signaling by phospholipids, HEK293 cells expressing wild-type GPR174; details: 10 nM to 10,000 nM
T3 construct: expressed in transfected cells; host or cells: HEK293
T3 sequence (Q9BXC1 whole entry): as the sequence (Q9BXC1 whole entry, species assumed) above
Experimental: as §2, §3
as §4, with “determined. […]” for “determined.”

Compound: CCCn1c(=O)c2[nH]c(-c3ccc(OCC(=O)Nc4ccc(C#N)cc4)cc3)nc2n(CCC)c1=O [MRS-1754]
- effect on GPR174 signaling [1]: did not affect GPR174 signaling

Compound: CCNC(=O)[C@H]1O[C@@H](n2cnc3c(N)ncnc32)[C@H](O)[C@@H]1O [NECA]
- IL-2 FC vs Media ([2]; FIG. 72A): 0.42 fold change
- IFN-γ FC vs Media ([2]; FIG. 72B): 0.31 fold change

Compound: Nc1nc(NCCc2ccc(O)cc2)nc2nc(-c3ccco3)nn12 [ZM-241385]
- increase of IL-2 levels ([3]; GPR174-KO splenocytes, no NECA, ZM-241385 0.1 μM, FIG. 68B): 1.3 fold
- increase of IL-2 levels ([3]; WT splenocytes, NECA 0.1 μM, compounds 10, 6 0.3 μM, ZM-241385 0.2 μM, FIG. 69): 2 fold
- increase of IL-2 levels ([3]; WT splenocytes, no NECA, compound 10 1 μM, ZM-241385 0.1 μM, FIG. 68A): 1.3 fold
- increase of IL-2 levels [4]: 1.4 fold

Compound: CCCC(=O)c1ccc(N2CCN(S(=O)(=O)c3ccc(C)cc3)CC2)c(F)c1 [compound 4]
- Gs pathway in the presence of ADBR2 (CRE-Luc reporter) [5]: did not modulate
- Gs signaling in the presence of ADBR (GloSensor, FIG. 21B) [6]: neither compound 4 nor LysoPS modulate Gs signaling
- dose-response curve against GPR174 in the CRA (FIG. 5A) [7]: show a dose-response curve
- competition with the GPR174 agonist LysoPS (GloSensor, FIG. 21A) ([8]; LysoPS fixed at 1 μM): does compete
- Gs pathway in the presence of GPR174 (GloSensor, FIG. 21A) ([8]; compound alone): does not modulate
- Gs pathway in the presence of GPR174 (CRE-Luc reporter) ([9]; increasing concentrations of compound): did not modulate
- Human GPR174 CRE Activity: nature of the compound (IA, antagonist, NM) [9]: GPR174 antagonist
- Human GPR174 CRE Activity: nature of the compound (IA, antagonist, NM) ([9]; listed as Compound 4): GPR174 antagonist
- activity against CHRM1 in the CRA (FIG. 5B) [10]: do not show any activity

Compound: lysophosphatidylserine [LysoPS]
- GPR174 Gs signaling, mutant GPR174-v38 (FIG. 45B) [11]: stimulate GPR174 Gs signaling in a concentration-dependent manner
- Gs signaling in the presence of ADBR (GloSensor, FIG. 21B) [6]: neither compound 4 nor LysoPS modulate Gs signaling
- GPR174 Gs signaling, wild-type GPR174 (FIG. 45A) [12]: stimulate GPR174 Gs signaling in a concentration-dependent manner
